Molecules are shown by their SMILES. A value given as a limit tells only on which side of the number the result lay.

This passage reports IC50 and inhibition results from ChEMBL document CHEMBL4330108, “The association between anti-tumor potency and structure-activity of protein-kinases inhibitors based on quinazoline molecular skeleton” (Bioorg Med Chem, 2019).

The target of test [1] is T1, Vascular endothelial growth factor receptor 2 (Homo sapiens, UniProt P35968).
The target in test [2] is Vascular endothelial growth factor receptor 3 (Homo sapiens, UniProt P35916). Briefly: Inhibition of VEGFR3 (unknown origin).
Sequence of Vascular endothelial growth factor receptor 3 (P35916 whole entry): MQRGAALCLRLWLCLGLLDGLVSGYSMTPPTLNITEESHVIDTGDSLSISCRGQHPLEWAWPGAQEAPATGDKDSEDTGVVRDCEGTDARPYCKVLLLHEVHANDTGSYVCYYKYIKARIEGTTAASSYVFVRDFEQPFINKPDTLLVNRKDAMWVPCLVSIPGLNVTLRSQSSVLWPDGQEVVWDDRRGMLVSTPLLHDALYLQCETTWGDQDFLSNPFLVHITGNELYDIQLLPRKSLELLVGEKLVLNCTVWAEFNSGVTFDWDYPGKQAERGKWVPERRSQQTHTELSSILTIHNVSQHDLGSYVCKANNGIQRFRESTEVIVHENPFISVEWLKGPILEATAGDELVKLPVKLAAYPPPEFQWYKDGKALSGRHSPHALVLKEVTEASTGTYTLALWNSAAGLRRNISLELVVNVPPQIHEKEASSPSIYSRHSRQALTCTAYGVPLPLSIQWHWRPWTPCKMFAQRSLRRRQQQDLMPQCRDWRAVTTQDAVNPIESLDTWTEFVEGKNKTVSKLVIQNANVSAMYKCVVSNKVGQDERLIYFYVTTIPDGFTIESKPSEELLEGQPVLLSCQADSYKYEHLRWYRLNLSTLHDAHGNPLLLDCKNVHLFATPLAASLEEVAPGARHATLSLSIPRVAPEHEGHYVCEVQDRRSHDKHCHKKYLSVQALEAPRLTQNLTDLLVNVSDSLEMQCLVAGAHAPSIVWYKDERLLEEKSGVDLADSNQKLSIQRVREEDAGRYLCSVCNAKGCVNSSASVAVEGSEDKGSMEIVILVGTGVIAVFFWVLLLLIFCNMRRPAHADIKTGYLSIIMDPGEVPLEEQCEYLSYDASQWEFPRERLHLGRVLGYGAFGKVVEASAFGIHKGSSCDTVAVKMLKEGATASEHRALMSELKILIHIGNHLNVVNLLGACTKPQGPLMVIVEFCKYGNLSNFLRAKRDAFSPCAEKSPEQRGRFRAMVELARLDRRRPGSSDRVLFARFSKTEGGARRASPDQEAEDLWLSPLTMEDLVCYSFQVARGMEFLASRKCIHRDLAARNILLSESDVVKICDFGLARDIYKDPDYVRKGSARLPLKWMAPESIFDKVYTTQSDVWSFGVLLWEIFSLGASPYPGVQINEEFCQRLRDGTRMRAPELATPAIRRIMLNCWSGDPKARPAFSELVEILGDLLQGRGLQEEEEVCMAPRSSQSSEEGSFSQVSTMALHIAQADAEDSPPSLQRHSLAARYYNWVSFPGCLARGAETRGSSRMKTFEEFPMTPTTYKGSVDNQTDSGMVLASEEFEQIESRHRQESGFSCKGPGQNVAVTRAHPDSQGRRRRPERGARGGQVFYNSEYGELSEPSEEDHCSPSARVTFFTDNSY
In test [3] the target is Vascular endothelial growth factor receptor 1 (Homo sapiens, UniProt P17948). Kind of test: Inhibition of VEGFR1 (unknown origin).
Sequence of Vascular endothelial growth factor receptor 1 (P17948 whole entry): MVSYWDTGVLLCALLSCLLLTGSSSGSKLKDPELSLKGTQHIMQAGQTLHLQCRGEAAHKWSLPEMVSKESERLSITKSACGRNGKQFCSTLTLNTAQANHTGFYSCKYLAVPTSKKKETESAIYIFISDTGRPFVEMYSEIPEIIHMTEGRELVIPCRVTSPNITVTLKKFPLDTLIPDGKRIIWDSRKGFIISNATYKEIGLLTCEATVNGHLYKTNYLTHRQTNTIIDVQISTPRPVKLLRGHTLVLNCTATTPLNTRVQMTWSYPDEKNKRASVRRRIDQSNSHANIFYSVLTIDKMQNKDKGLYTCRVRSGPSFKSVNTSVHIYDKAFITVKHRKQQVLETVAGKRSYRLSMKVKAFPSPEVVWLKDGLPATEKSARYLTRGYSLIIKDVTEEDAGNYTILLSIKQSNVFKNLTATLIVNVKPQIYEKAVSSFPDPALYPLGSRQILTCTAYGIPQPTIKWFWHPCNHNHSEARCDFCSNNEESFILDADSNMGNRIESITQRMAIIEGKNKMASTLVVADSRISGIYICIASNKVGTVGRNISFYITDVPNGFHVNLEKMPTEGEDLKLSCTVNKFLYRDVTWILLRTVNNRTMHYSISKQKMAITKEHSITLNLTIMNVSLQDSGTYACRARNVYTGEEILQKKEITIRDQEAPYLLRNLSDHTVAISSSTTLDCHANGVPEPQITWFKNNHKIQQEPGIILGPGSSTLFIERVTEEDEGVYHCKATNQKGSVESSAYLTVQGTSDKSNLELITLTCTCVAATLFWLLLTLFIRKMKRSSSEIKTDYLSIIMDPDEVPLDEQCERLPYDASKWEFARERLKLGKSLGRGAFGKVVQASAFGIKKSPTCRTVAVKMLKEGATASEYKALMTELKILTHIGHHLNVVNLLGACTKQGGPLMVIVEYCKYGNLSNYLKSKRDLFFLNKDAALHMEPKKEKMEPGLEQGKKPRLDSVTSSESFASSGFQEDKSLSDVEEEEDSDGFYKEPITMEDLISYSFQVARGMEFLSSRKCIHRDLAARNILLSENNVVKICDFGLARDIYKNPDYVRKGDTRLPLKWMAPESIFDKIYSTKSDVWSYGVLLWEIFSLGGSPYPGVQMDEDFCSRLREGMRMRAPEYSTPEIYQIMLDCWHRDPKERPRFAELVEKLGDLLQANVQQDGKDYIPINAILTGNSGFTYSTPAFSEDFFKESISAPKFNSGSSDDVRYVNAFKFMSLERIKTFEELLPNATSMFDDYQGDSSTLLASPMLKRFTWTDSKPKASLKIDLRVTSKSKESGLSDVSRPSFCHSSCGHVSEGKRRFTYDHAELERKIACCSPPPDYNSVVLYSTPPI
Test [4] deals with T1, Vascular endothelial growth factor receptor 2. Briefly: Inhibition of VEGFR2 (unknown origin) using FAM-labelled peptide as substrate measured after 10 mins.
Test [5] can be described thus: Inhibition of bovine brain PI3K using phosphatidylinositol as substrate preincubated for 5 mins followed by [gamma-32P]ATP addition and measured after 10 mins by liquid scintillation counting method. Further details: species or system Bos taurus.
Test [6] is described as follows: Inhibition of PI3K (unknown origin). Also noted: species or system Homo sapiens.
Test [7] has as its target Serine/threonine-protein kinase B-raf (Homo sapiens, UniProt P15056, V600E). Kind of test: Inhibition of recombinant human GST-fused B-Raf V600E mutant using MEK1 as substrate measured after 60 mins by HTRF assay. (In general: In TR-FRET formats the signal depends on donor and acceptor labels being close together.)
Test [8] has as its target Serine/threonine-protein kinase B-raf (Homo sapiens) (UniProt P15056). Kind of test: Inhibition of wild-type B-Raf (unknown origin) at 10 uM relative to control.
Test [9] can be described thus: Inhibition of PI3K (unknown origin) using PIP2 as substrate measured after 2 hrs by luciferase-luciferin […] assay. Further details: species or system Homo sapiens.
Another test has as its target Histone deacetylase 1 (Homo sapiens, UniProt Q13547). Kind of test: Inhibition of HDAC1 (unknown origin) using HDAC substrate by AFC probe based immunoprecipitation assay.
In test [10] the target is Receptor tyrosine-protein kinase erbB-2 (Homo sapiens, UniProt P04626). Kind of test: Inhibition of HER2 (unknown origin).
Test [11] has as its target Epidermal growth factor receptor (Homo sapiens, UniProt P00533). Kind of test: Inhibition of EGFR (unknown origin).

T1 sequence (P35968 whole entry): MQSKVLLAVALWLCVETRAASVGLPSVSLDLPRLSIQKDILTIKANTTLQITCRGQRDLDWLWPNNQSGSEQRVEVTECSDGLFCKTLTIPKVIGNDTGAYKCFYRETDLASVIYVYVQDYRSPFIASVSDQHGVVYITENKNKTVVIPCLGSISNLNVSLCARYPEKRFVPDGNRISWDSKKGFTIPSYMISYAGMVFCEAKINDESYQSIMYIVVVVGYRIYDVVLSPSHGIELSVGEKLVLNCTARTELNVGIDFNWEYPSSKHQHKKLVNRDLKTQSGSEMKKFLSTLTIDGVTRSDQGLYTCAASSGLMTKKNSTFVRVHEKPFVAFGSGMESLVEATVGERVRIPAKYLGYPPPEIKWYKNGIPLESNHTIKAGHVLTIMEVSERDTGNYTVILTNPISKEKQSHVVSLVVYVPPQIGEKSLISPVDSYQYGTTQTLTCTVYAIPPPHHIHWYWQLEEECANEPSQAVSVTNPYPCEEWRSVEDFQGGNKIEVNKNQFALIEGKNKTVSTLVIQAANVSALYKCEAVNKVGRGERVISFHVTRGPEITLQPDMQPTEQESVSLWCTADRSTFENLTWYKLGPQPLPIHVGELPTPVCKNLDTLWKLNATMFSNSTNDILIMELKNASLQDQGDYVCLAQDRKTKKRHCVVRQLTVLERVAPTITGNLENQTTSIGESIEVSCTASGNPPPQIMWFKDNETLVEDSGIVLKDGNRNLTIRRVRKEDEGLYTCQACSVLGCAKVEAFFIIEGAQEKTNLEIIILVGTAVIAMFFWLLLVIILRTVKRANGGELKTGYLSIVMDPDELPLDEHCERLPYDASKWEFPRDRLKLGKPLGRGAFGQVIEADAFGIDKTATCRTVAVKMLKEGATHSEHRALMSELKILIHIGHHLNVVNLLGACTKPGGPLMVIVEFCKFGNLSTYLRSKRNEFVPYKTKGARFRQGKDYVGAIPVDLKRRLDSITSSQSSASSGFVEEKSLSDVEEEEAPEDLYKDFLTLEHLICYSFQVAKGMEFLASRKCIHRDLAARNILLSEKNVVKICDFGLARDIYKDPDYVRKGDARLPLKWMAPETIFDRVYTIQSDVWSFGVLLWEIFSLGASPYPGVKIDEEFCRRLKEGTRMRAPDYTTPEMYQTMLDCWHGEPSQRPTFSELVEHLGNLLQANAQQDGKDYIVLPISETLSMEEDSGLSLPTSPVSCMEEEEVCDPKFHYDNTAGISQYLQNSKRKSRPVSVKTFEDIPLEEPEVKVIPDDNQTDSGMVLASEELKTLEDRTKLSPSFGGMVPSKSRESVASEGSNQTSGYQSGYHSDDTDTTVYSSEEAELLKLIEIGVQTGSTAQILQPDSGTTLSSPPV
Sequence of Histone deacetylase 1 (Q13547 whole entry): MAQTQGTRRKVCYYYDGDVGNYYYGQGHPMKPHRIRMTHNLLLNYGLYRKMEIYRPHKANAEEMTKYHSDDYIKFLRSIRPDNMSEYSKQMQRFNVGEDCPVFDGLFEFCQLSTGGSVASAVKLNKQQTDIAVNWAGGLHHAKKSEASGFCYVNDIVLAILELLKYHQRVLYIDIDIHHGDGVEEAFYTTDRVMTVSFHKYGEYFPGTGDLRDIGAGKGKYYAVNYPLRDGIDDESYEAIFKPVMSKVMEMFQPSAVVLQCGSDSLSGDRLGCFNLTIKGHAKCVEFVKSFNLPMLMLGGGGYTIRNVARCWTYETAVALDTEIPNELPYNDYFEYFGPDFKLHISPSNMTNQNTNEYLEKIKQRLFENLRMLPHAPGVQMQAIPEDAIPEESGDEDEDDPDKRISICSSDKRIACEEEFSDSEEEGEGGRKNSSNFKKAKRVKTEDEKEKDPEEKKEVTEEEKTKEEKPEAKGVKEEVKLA

What is called IC50 is the concentration at which inhibition is half-maximal. Consider `COc1cc2ncnc(Nc3ccc4c(c3)CCCN4C(=O)Nc3cccc(Cl)c3)c2cc1OC`, for which the values for the IC50 in [1], in [2] and in test [3] were 30.5 nM, 7.8 nM and 7.1 nM, respectively. As for `O=C(Nc1ccc(Nc2ccc([N+](=O)[O-])c3ncnc(O)c23)cc1)Nc1cc(C(F)(F)F)ccc1Cl`, inhibition in test [4] was half-maximal at 12 nM (IC50). As to `O=c1cc(N2CCOCC2)oc2c(-c3ccccc3)cccc12` [LY-294002], the IC50 in [5] is 1000 nM. In turn, `CCOc1cc2ncc(C#N)c(Nc3ccc(Cl)c(F)c3)c2cc1NC(=O)/C=C/CN(C)C` registered an IC50 in test [3] of 1260 nM.

As to `COc1cc2ncnc(Nc3ccc4c(c3)CCCN4C(=O)Nc3ccc(C(C)=O)cc3)c2cc1OC`, the IC50 amounted to 30.1 nM in test [1], 17.3 nM in test [2] and 9.6 nM in [3]. `Cc1cccc(NC(=O)Nc2ccc(Nc3ccc([N+](=O)[O-])c4ncnc(O)c34)cc2)c1` registered an IC50 in [4] of 78 nM. Molecule `c1ccc2c(c1)ccn2-c1ncnc2ccc(-c3ccc4[nH]ccc4c3)cc12` came in with a 50% inhibitory concentration (IC50) in test [6] of 100 to 10000 nM. In [4], `O=C(Nc1ccc(Nc2ccc([N+](=O)[O-])c3ncnc(O)c23)cc1)Nc1cc(Cl)ccc1Cl` displayed an IC50 of 42 nM. As to `Cc1ccc(CC[C@@H]2CCN2C)c(NC(=O)Nc2cccc(Oc3ccc4nc[nH]c(=O)c4c3)c2)c1`, the concentration for half-maximal inhibition (IC50) in test [7] was 3.9 nM. Usually inhibition stands for the drop in the measured response relative to a control, in per cent. Higher therefore signals a response far below the control. For `CCOCCCOc1cc2ncnc(Oc3ccc(NC(=O)Nc4ccc(F)c(C(F)(F)F)c4)cc3)c2cc1N`, in test [8], the inhibition was 98.9%. In the case of `Cc1cc(N2CCC(F)(F)C2)cc2c(N3CCc4ccc(C(=O)N5CCC(N)CC5)cc4C3)ncnc12`, the IC50 in [9] was below 500 nM. In the case of `COc1cc2ncnc(Nc3ccc(CC(=O)Nc4cc(-c5cccs5)ccc4N)cc3)c2cc1OC`, the IC50 on Histone deacetylase 1 was 178 nM.

`O=C(Nc1ccc(Nc2ccc([N+](=O)[O-])c3ncnc(O)c23)cc1)Nc1cccc(C(F)(F)F)c1` had an IC50 in test [4] of 45 nM.

Regarding `CCOc1cc2ncc(C#N)c(Nc3ccc(OCc4ccccn4)c(F)c3)c2cc1NC(=O)/C=C/CN(C)C`, the IC50 came out at 59 nM in test [10] and 92 nM in [11]. Take `COc1cccc(NC(=O)N2CCCc3cc(Nc4ncnc5cc(OC)c(OC)cc45)ccc32)c1`: the IC50 was determined as 51.9 nM in test [1], 14.2 nM in [2] and 5.5 nM in test [3].
